Reference: patent US6737425B1, “N,N-substituted cyclic amine derivatives” (Eisai Co., Ltd., priority 1998, dated 2004)
Structures can show the parent of a compound that is named as a salt.

tested on: voltage-dependent calcium channels (cerebral cortex synaptosome); experiment: Measurement of voltage-dependent calcium channel activity by the use of a fluorescent pigment (fura 2); assay type: cell-based; details: rat cerebral cortex synaptosome, fura 2, KCl stimulation, compound incubated 10 minutes
Procedure: Measurement of Voltage-dependent Calcium Channel Activity by the use of a Fluorescent Pigment (fura 2)
Cerebral cortexes were removed from cut rat brains and disrupted roughly with scissors. These were introduced into a homogenizer, homogenized in 0.3 M saccharose and centrifuged at 4° C. (1,500 g×10 min). The resulting supernatant was further centrifuged at 4° C. (10,000 g×20 min). The resulting precipitates were suspended in 0.3 M saccharose. The suspension was layered on 0.8 M saccharose and centrifuged (10,000 g×30 min.).
4 μM fura 2/AM (Dojin Ltd.) was suspended in solution A to prepare a loading solution. To the synaptosome solution prepared in the method described above was added an equal volume of the loading solution, and the mixture was incubated for 40 minutes at room temperature.
As comparative and control compound, verapamil hydrochloride was used.

| IC50 [µM] | SMILES |
| --- | --- |
| 4 | CC(C)C(C#N)(CCCN1CCN(CCCOc2ccc(F)cc2)CC1)c1ccccc1 (stereo not drawn) [Example 2, 1-[(4-Cyano-5-methyl-4-phenyl)hexyl]-4-[3-(4-fluorophenoxy)propyl]piperazine] |
| 4.8 | CC(C)C(C#N)(CCCN1CCCN(CCOc2ccc(F)cc2)CC1)c1ccccc1 (stereo not drawn) [Example 3] |
| 5.7 | CC(C)C(C#N)(CCN1CCCN(CCOc2ccc(F)cc2)CC1)c1ccccc1 (stereo not drawn) [Example 4, 1-[(3-Cyano-4-methyl-3-phenyl)pentyl]-4-[2-(4-fluorophenoxy)ethyl]homopiperazine] |
| 7.7 | CC(C)C(C#N)(CCN1CCN(CCCOc2ccc(F)cc2)CC1)c1ccccc1 (stereo not drawn) [Example 5, 1-[(3-Cyano-4-methyl-3-phenyl)pentyl]-4-[3-(4-fluorophenoxy)propyl]piperazine] |
| 2.7 | CC(C)C(C#N)(CCCN1CCN(CCCCOc2ccccc2)CC1)c1ccccc1 (stereo not drawn) [Example 6, 1-[(4-Cyano-5-methyl-4-phenyl)hexyl]-4-(4-phenoxybutyl)piperazine] |
| 4.2 | CC(C)C(C#N)(CCCN1CCN(CCOc2ccc([N+](=O)[O-])cc2)CC1)c1ccccc1 (stereo not drawn) [Example 8, 1-[(4-Cyano-5-methyl-4-phenyl)hexyl]-4-[2-(4-nitrophenoxy)ethyl]piperazine] |
| 8.1 | COC(=O)c1ccc(C(C#N)(CCCN2CCN(CCOc3ccc(F)cc3)CC2)C(C)C)cc1 (stereo not drawn) [Example 12, 1-[4-Cyano-5-methyl-4-(4-carbomethoxyphenyl)hexyl]-4-[2-(4-fluorophenoxy)ethyl]piperazine] |
| 8.7 | CC(C)C(C#N)(CCCN1CCN(CCOc2ccc(F)cc2)CC1)c1ccc(C=NO)cc1 (stereo not drawn) [Example 14, 1-[4-Cyano-5-methyl-4-(4-hydroxyiminomethylphenyl)hexyl]-4-[2-(4-fluorophenoxy)ethyl]piperazine] |
| 9.8 | CC(C)C(C#N)(CCCN1CCN(CCOc2ccc(F)cc2)CC1)c1ccc(C#N)cc1 (stereo not drawn) [Example 15, 1-[4-Cyano-5-methyl-4-(4-cyanonphenyl)hexyl]-4-[2-(4-fluorophenoxy)ethyl]piperazine] |
| 4.8 | CC(C)C(C#N)(CCCN1CCN(CCOc2ccc(F)cc2)CC1)c1ccc([N+](=O)[O-])cc1 (stereo not drawn) [Example 16, 1-[4-Cyano-5-methyl-4-(4-nitrophenyl)hexyl]-4-[2-(4-fluorophenoxy)ethyl]piperazine] |
| > 16 | CC(C)C(C#N)(CCCN1CCN(CCOc2ccc(F)cc2)CC1)c1ccc(N)cc1 (stereo not drawn) [Example 17, 1-[4-Cyano-5-methyl-4-(4-aminophenyl)hexyl]-4-[2-(4-fluorophenoxy)ethyl]piperazine] |
| 6 | CC(C)C(C#N)(CCCN1CCN(CCOc2ccc(F)cc2)CC1)c1ccc(N(C)C)cc1 (stereo not drawn) [Example 19, 1-[4-Cyano-5-methyl-4-(4-dimethylaminophenyl)hexyl]-4-[2-(4-fluorophenoxy)ethyl]piperazine] |
| 9.7 | CC(C)C(C#N)(CCN1CCN(CCOc2ccc(F)cc2)CC1)c1ccccc1 (stereo not drawn) [Example 25, 1-[(3-Cyano-4-methyl-3-phenyl)pentyl]-4-[2-(4-fluourophenoxy)ethyl]piperazine] |
| 4.6 | CCCC(C#N)(CCCN1CCN(CCOc2ccc(F)cc2)CC1)c1ccccc1 (stereo not drawn) [Example 27, 1-[(4-Cyano-4-phenyl)heptyl]-4-[2-(4-fluorophenoxy)ethyl]piperazine] |
| 7.2 | CCC(C#N)(CCCN1CCN(CCOc2ccc(F)cc2)CC1)c1ccccc1 (stereo not drawn) [Example 28, 1-[(4-Cyano-4-phenyl)hexyl]-4-[2-(4-fluorophenoxy)ethyl]piperazine] |
| 4 | CCCCC(C#N)(CCCN1CCN(CCOc2ccc(F)cc2)CC1)c1ccccc1 (stereo not drawn) [Example 29, 1-[(4-Cyano-4-phenyl)octyl]-4-[2-(4-fluorophenoxy)ethyl]piperazine] |
| 2.9 | CC(C)CC(C#N)(CCCN1CCN(CCOc2ccc(F)cc2)CC1)c1ccccc1 (stereo not drawn) [Example 30, 1-[(4-Cyano-6-methyl-4-phenyl)hepthyl]-4-[2-(4-fluorophenoxy)ethyl]piperazine] |
| 9.3 | CC(C)C(C#N)(CCCN1CCN(CCOc2ccccc2F)CC1)c1ccccc1 (stereo not drawn) [Example 31] |
| 6.2 | CC(C)C(C#N)(CCCN1CCN(CCOc2cccc(F)c2)CC1)c1ccccc1 (stereo not drawn) [Example 32, 1-[(4-Cyano-5-methyl-4-phenyl)hexyl]-4-[2-(3-fluorophenoxy)ethyl]piperazine] |

| IC50 [µM] | SMILES |
| --- | --- |
| 3.4 | CC(C)C(C#N)(CCCN1CCN(CCCCCOc2ccc(F)cc2)CC1)c1ccccc1 (stereo not drawn) [Example 33] |
| 3.8 | CC(C)C(C#N)(CCCCN1CCN(CCOc2ccc(F)cc2)CC1)c1ccccc1 (stereo not drawn) [Example 34] |
| 5.2 | CC(C)C(C#N)(CCCN1CCN(CCOc2ccc(F)c(F)c2)CC1)c1ccccc1 (stereo not drawn) [Example 35, 1-[(4-Cyano-5-methyl-4-phenyl)hexyl]-4-[2-(3,4-difluorophenoxy)ethyl]piperazine] |
| 2.7 | CC(C)C(C#N)(CCCN1CCN(CCOc2ccc(F)cc2)CC1)c1ccc(Cl)c(Cl)c1 (stereo not drawn) [Example 37, 1-{[4-Cyano-5-methyl-4-(3,4-dichlorophenyl)hexyl]}-4-[2-(4-fluorophenoxy)ethyl]piperazine] |
| 4 | N#CC(CCCN1CCN(CCOc2ccc(F)cc2)CC1)(c1ccccc1)C1CCCCC1 (stereo not drawn) [Example 38] |
| 9.6 | COc1ccc(OCCN2CCN(CCCC(C#N)(c3ccccc3)C(C)C)CC2)cc1 (stereo not drawn) [Example 39, 1-[(4-Cyano-5-methyl-4-phenyl)hexyl]-4-[2-(4-methoxyphenoxy)ethyl]piperazine] |
| 10 | COc1cccc(OCCN2CCN(CCCC(C#N)(c3ccccc3)C(C)C)CC2)c1OC (stereo not drawn) [Example 40, 1-[(4-Cyano-5-methyl-4-phenyl)hexyl]-4-[2-(2,3-dimethoxyphenoxy)ethyl]piperazine] |
| 13 | CC(C)C(C#N)(CCCN1CCN(CCOc2ccc(N(C)C)cc2)CC1)c1ccccc1 (stereo not drawn) [Example 43, 1-[(4-Cyano-5-methyl-4-phenyl)hexyl]-4-[2-(4-dimethylaminophenoxy)ethyl]piperazine] |
| 4.6 | CSc1ccc(OCCN2CCN(CCCC(C#N)(c3ccccc3)C(C)C)CC2)cc1 (stereo not drawn) [Example 45, 1-[(4-Cyano-5-methyl-4-phenyl)hexyl]-4-[2-(4-methylthiophenoxy)ethyl]piperazine] |
| 16 | CC(C)C(C#N)(CCCN1CCN(CCOc2ccccc2C#N)CC1)c1ccccc1 (stereo not drawn) [Example 46, 1-[(4-Cyano-5-methyl-4-phenyl)hexyl]-4-[2-(2-cyanophenoxy)ethyl]piperazine] |
| 13 | CC(C)C(C#N)(CCCN1CCN(CCOc2ccc(C#N)cc2)CC1)c1ccccc1 (stereo not drawn) [Example 47, 1-[(4-Cyano-5-methyl-4-phenyl)hexyl]-4-[2-(4-cyanophenoxy)ethyl]piperazine] |
| 8.4 | CC(C)C(C#N)(CCCN1CCN(CCOCc2ccccc2)CC1)c1ccccc1 (stereo not drawn) [Example 48, 1-[(4-Cyano-5-methyl-4-phenyl)hexyl]-4-[2-(benzyloxy)ethyl]piperazine] |
| 4.8 | CC(C)C(C#N)(CCCN1CCN(CCSc2ccc(F)cc2)CC1)c1ccccc1 (stereo not drawn) [Example 49, 1-[(4-Cyano-5-methyl-4-phenyl)hexyl]-4-[2-(4-fluorophenylthio)ethyl]piperazine] |
| 7.5 | CC(C)C(C#N)(CCCN1CCN(CCNc2ccc(F)cc2)CC1)c1ccccc1 (stereo not drawn) [Example 51, 1-[(4-Cyano-5-methyl-4-phenyl)hexyl]-4-[2-(4-fluorophenylamino)ethyl]piperazine] |
| 16 | CC(=O)N(CCN1CCN(CCCC(C#N)(c2ccccc2)C(C)C)CC1)Cc1ccccc1 (stereo not drawn) [Example 56, 1-[(4-Cyano-5-methyl-4-phenyl)hexyl]-4-[2-(N-acetyl-N-benzylamino)ethyl]piperazine] |
| 12 | CC(C)C(C#N)(CCCN1CCN(CCC(=O)c2ccc(F)cc2)CC1)c1ccccc1 (stereo not drawn) [Example 59, 1-[(4-Cyano-5-methyl-4-phenyl)hexyl]-4-[2-(4-fluorobenzoyl)ethyl]piperazine] |
| 10 | CC(C)C(C#N)(CCCN1CCN(CCC(O)c2ccc(F)cc2)CC1)c1ccccc1 (stereo not drawn) [Example 60, 1-[(4-Cyano-5-methyl-4-phenyl)hexyl]-4-[-hydroxy-3-(4-flurophenyl)propyl]piperazine] |
| 8.8 | CC(C)C(C#N)(CCCN1CCN(CC(O)COc2ccc(F)cc2)CC1)c1ccccc1 (stereo not drawn) [Example 62, 1-[(4-Cyano-5-methyl-4-phenyl)hexyl]-4-[2-hydroxy-3-(4-fluorophenoxy)propyl]piperazine] |

| SMILES | IC50 [µM] |
| --- | --- |
| COc1ccc(CCN(C)CCCC(C#N)(c2ccc(OC)c(OC)c2)C(C)C)cc1OC (stereo not drawn) [Control, verapamil hydrochloride, reference compound] | > 16 |
| CC(C)C(C#N)(CCCN1CCN(C(=O)COc2ccc(F)cc2)CC1)c1ccccc1 (stereo not drawn) [Example 61, 1-[(4-Cyano-5-methyl-4-phenyl)hexyl]-4-[2-(4-fluorophenoxy)acetyl]piperazine] | 11 |

same assay, conditions: rat cerebral cortex synaptosome, fura 2, KCl stimulation, compound incubated 10 minutes; Hydrochloride

| IC50 [µM] | SMILES |
| --- | --- |
| 15 | CC(C)C(C#N)(CCN1CCN(CCOc2ccc(F)cc2)CC1)c1ccccc1 (single isomer, unassigned; (+)) [Example 78, (+)-1-[(3-Cyano-4-methyl-3-phenyl)pentyl]-4-[2-(4-fluorophenoxyl)ethyl]piperazine Hydrochloride] |
| 3.8 | N#CC(CCCN1CCN(CCOc2ccc(F)cc2)CC1)(c1ccccc1)C1CCCCC1 (single isomer, unassigned; (+)) [Example 80, (+)-1-[(4-Cyano-4-cyclohexyl-4-phenyl)butyl]-4-[2-(4-fluorophenoxyl)ethyl]piperazine Hydrochloride] |
| 7.5 | CC(C)C(C#N)(CCN1CCN(CCOc2ccc(F)cc2)CC1)c1ccccc1 (single isomer, unassigned; (-)) [Example 77, (−)-1-[(3-Cyano-4-methyl-3-phenyl)pentyl]-4-[2-(4-fluorophenoxyl)ethyl]piperazine Hydrochloride] |
